Entries after “also recorded” stand apart in the source; their conditions may differ.
Columns and labels:
Format in all cases: in vivo, C57BL/6J mice
[1] = tested on: mice exposed to unpredictable chronic mild stress (UCMS); assay: Composite emotionality Z-score across EPM, OFT, NSF, cookie test
Method: To assess the consistency of effects of stress and drug treatment on overall stress-induced behavior, we calculated behavioral z-scores using the formula below. These normalized scores integrate measures of behavioral dimensions (e.g., emotionality) over time and tests, yielding a combined measure of the UCMS-induced behavioral syndrome ([Guilloux et al., 2011]).
Briefly, for each behavioral measure a Z-score was calculated for an individual animal indicating how many standard deviations (σ) a given observation (X) is from the mean of the control group (μ). These scores were averaged within test such that each test had the same weight, and then averaged across all four tests (EPM, OFT, NSF, cookie test) to obtain a composite emotionality Z-score for each mouse. In short, random or opposite behavior across tests yield null z-scores, whereas significant and/or trend-like behaviors across tests and consistently in the same directions yield high z-scores.

[2] = tested on: Gabra5; assay: Gabra5 transcript expression by qPCR in prelimbic cortex and hippocampus
Method: Twenty-four hours after the final behavioral test, mice were injected with either an acute dose of α5-PAM or vehicle 30 min prior to rapid perfusion (2 ml 4%PFA). Brains were rapidly dissected and flash frozen on dry ice. 160 μm thick coronal sections were obtained using a cryostat. The prelimbic cortex and dorsal hippocampus were dissected with a 1 mm diameter micropunch and tissue samples were then frozen at -80°C. Total RNA was extracted with an RNAeasy FFPE kit (Qiagen, Germantown, MD, USA) and tested for purity on a NanoDrop Spectrophotometer (260/280 ≥ 1.9). RNA concentration and integrity (RIN > 7) were then assessed using the Agilent RNA6000 Pico-Kit and Agilent 2100 Bioanalyzer (Agilent Technologies, Santa Clara, CA, USA).
Approximately 90 ng of total RNA was used to generate cDNA via the qScript^TM cDNA Supermix synthesis kit (Quanta Biosciences, Gaithersburg, MD, USA). Real-time quantitative polymerase chain (qPCR) reactions were carried out using SYBR green fluorescence signal (Invitrogen, Carlsbad, CA, USA) and an Opticon Monitor DNA Engine (Bio-Rad, Berkeley, CA, USA). Gene of interest was the α5-subunit of the GABAA receptor (Gabra5). Samples were run in triplicate and ΔCt values were calculated by comparing the Ct values of Gabra5 to the geometric mean of two reference genes, β-Actin and glyceraldehyde 3-phosphate dehydrogenase (Gapdh). Arbitrary signal intensity was calculated as 2^-ΔCt∗10,000.

[3] = Pharmacokinetic study, plasma and brain levels after single i.p. injection; conditions: 30 mg/kg i.p.; for Brain AUC0-3: mean ± SEM
Method: Adult (8 weeks old) male and female C57BL/6J (Military Farm, Belgrade, Serbia) were divided into six groups corresponding to pre-determined time intervals following a single 30 mg/kg α5-PAM injection (5, 10, 20, 40, 60, and 180 min). At 30 mg/kg α5-PAM administration has high affinity for the α5-subunit and lower affinity for GABAA-receptors containing other subunits ([Savic et al., 2010]). As the goal of this study was to selectively evaluate positive modulation of α5-containing GABAA receptors to stress-induced behaviors, we chose this dose to conduct preliminary pharmacokinetic analyses. Blood samples were collected in heparinized syringes via cardiac puncture of mice anesthetized with ketamine (100 mg/kg i.p.; 10% Ketamidor, Richter Pharma Ag, Wels, Austria), and centrifuged at 2500 rpm for 10 min to obtain plasma. Thereafter, mice were decapitated and brains were weighed, homogenized in 2 mL of methanol and centrifuged at 6000 rpm for 20 min. To determine the concentration of α5-PAM in plasma and supernatants of brain tissue homogenates, α5-PAM was extracted by solid phase extraction using Oasis HLB cartridges (Waters Corporation, Milford, MA, USA). The procedure of sample preparation and determination of α5-PAM by ultra performance liquid chromatography–tandem mass spectrometry (UPLC–MS/MS) with Thermo Scientific Accela 600 UPLC system connected to a Thermo Scientific TSQ Quantum Access MAX triple quadrupole mass spectrometer (Thermo Fisher Scientific, San Jose, CA, USA) equipped with electrospray ionization (ESI) source, is described in [Obradovic et al. (2014)].

## C#Cc1ccc2c(c1)C(c1ccccc1F)=N[C@H](C)c1c(C(=O)OCC)ncn1-2 [α5-PAM]
[1]; female UCMS mice, acute 30 mg/kg i.p., first cohort (Figure 2)
  Z-emotionality score: Significant anti-stress effect
[1]; female UCMS mice, acute and chronic treatment groups, second cohort (Figure 3)
  Z-emotionality score compared to non-stressed vehicle group: not statistically different
[1]; female UCMS mice, acute treatment, vs UCMS-vehicle, second cohort (Figure 3)
  Z-emotionality score: normalized; also recorded: significantly decreased
[1]; female UCMS mice, chronic 30 mg/kg i.p., first cohort (Figure 2)
  Z-emotionality score: Significant anti-stress effect
[1]; female UCMS mice, chronic treatment, vs UCMS-vehicle, second cohort (Figure 3)
  Z-emotionality score: normalized; also recorded: significantly decreased
[1]; male UCMS mice, 37.5 mg/kg acute or chronic (Figure 4D), 37.5 mg/kg
  Composite emotionality Z-score: No effect; also recorded: lack of anti-stress activity
[1]; male UCMS mice, acute or chronic 30 mg/kg i.p., first cohort (Figure 2)
  Z-emotionality score: no effect
[1]; male mice, UCMS plus single housing, chronic treatment (Figure 4C)
  Summary emotionality Z-score: lack of effect; also recorded: does not remediate
[2]; female UCMS mice, acute treatment
  Gabra5 (α5) transcript expression, prelimbic cortex: significantly increased; also recorded: increases
[2]; female UCMS mice, chronic treatment
  Gabra5 (α5-subunit) transcript expression, hippocampus: increases
[2]; male UCMS mice, acute or chronic treatment, prelimbic cortex and hippocampus
  Gabra5 gene expression: No change
[2]; male or female UCMS mice, chronic treatment
  Gabra5 (α5) transcript expression, prelimbic cortex: No effect
[3]
  Brain AUC0-3, females relative to males: approximately 1.25 X
[3]; female mice
  Brain AUC0-3: 4910.13 ± 1032.02 ng·h/g
[3]; male mice
  Brain AUC0-3: 3944.49 ± 560.30 ng·h/g

— article PMC5118774 (Frontiers in Pharmacology, 2016)
